According to PubChem BioAssay AID248 (DTP/NCI, 2004):
Inconclusive results and toxic doses are left out. Rule as the data show it: active = T/C of 150% or more; inactive = T/C below 125%.

System: L1210 leukemia ip in BDF1 mice, survival T/C
Experiment: NCI In Vivo Anticancer Drug Screen. Data for tumor model L1210 Leukemia (intraperitoneal) in B6D2F1 (BDF1) mice
Details: endpoint: mean survival time, higher = longer survival
Summary of the method: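 Each compound was tested against a transplantable tumor grown in mice. The endpoint was survival, with treated animals benchmarked against vehicle controls as a simple ratio.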

Measured: T/C

CC(C)CC(=O)NC(C)C(=O)NC(Cc1ccccc1)C(=O)CCl (centres undefined)
inactive: dose: 12.0 mg/kg/injection, schedule: Q04DX002 (ip), vehicle: Klucel (hydroxypropylcellulose) (HPC) 109 % of control | dose: 25.0 mg/kg/injection, schedule: Q04DX002 (ip), vehicle: Klucel (hydroxypropylcellulose) (HPC) 98 % of control | dose: 50.0 mg/kg/injection, schedule: Q04DX002 (ip), vehicle: Klucel (hydroxypropylcellulose) (HPC) 106 % of control

CCOP(=S)(S)OCC.[Pd]
inactive: dose: 12.5 mg/kg/injection, schedule: Q01DX009 (ip), vehicle: other 95 % of control | dose: 25.0 mg/kg/injection, schedule: Q01DX009 (ip), vehicle: other 95 % of control | dose: 50.0 mg/kg/injection, schedule: Q01DX001 (ip), vehicle: saline 96 % of control | dose: 100.0 mg/kg/injection, schedule: Q01DX001 (ip), vehicle: saline 100 % of control | dose: 200.0 mg/kg/injection, schedule: Q01DX001 (ip), vehicle: saline 100 % of control | dose: 400.0 mg/kg/injection, schedule: Q01DX001 (ip), vehicle: saline 100 % of control
